Measured values taken from patent US8314123B2, “5, 6, or 7-substituted -3-(hetero) arylisoquinolinamine derivatives and therapeutic use thereof” (Rexahn Pharmaceuticals, Inc., priority 2006, dated 2012).
Where two headings read alike, the source gives them in different places.

Experiments:
SNB-19 (glioblastoma) = test: In vitro cell proliferation assay (SRB), SNB19; type: cell-based; settings: Homo sapiens, SRB method, 96 hours, read-out: Inhibition of cell growth (IC50, μM) SNB19
Procedure: (§1) Cancer cell lines to determine the effect of 5, 6, or 7-substituted-3-(hetero)arylisoquinolinamine compounds were obtained from the following sources: Human MDA-MB-231 (breast), PC3 (prostate), HCT-15 (colon), HCT116 (colon), OVCAR-3 (ovary), Caki-1 (kidney), PANC-1 (pancreas), SNB-19 (glioblastoma) and SK-MEL-28 (melanoma) from the American Type Culture Collection (ATCC) (Manassas, Va.). PC3, OVCAR-3, SK-MEL-28 and SNB-19 were grown in RPMI1640 medium (Invitrogen, Carlsbad, Calif.) supplemented with 10% fetal bovine serum (“FBS”), 1 mM sodium pyruvate, 10 mM HEPES and 100 U/ml penicillin and 100 μg/ml streptomycin (“P/S”). MDA-MB-231, Caki-1, HCT-15 (colon) and PANC-1 cells were maintained in Dulbecco's modified Eagle's medium (“DMEM”, Invitrogen) supplemented with 10% FBS, P/S and 10 mM HEPES. HCT116 cells were maintained in DMEM supplemented with 10% FBS, P/S and 10 mM HEPES for in vitro cell proliferation assay and in RPMI1640 medium supplemented with 10% FBS, 1 mM sodium pyruvate, 10 mM HEPES and P/S for in vitro cell cycle analysis. All cells were incubated at 37° C. under humidified 5% CO2.
(§2) The growth inhibition of the 5, 6, or 7-substituted-3-(hetero)arylisoquinolinamine derivatives against a variety of human tumor cells was evaluated to study the relative importance of particular substituent groups on the compounds. The 5, 6, or 7-substituted-3-(hetero)arylisoquinolinamine derivatives, prepared as described above, were tested with DMSO as a control.
(§3) The growth inhibition assay of representative 5, 6, or 7-substituted-3-(hetero)arylisoquinolinamine derivatives against human tumor cell lines was performed using the Sulforhodamine B (“SRB”) method (Skehan et al., J. National Cancer Institute, 82: 1107-1112 (1990)). Briefly, exponentially growing tumor cells were seeded into a 96-well plate at a density of 2-3×10^3 cells/well and treated with 5, 6, or 7-substituted-3-(hetero)arylisoquinolinamine compounds the next day. Triplicate wells were used for each treatment. The cells were incubated with the various compounds for 96 hours at 37° C. in a humidified 5% CO2 atmosphere. After 96-hour incubation, cells were fixed with 10% trichloroacetic acid (“TCA”), incubated for 1 hour at 4° C., and washed 3 times with tap water. Subsequently, cells were stained with 0.4% sulforhodamine B in 1% acetic acid for 30 minutes, washed 4 times with 1% acetic acid, and air-dried again. After 5 minutes agitation in 10 mM Tris solution, the absorbance of each well was measured at 530 nm using Benchmark Plus Microplate reader (Bio-Rad Laboratories, Hercules, Calif.).
(§4) To translate the OD530 values into the number of live cells in each well, the OD530 values were compared to those on standard OD530-versus-cell number curves generated for each cell line. The percent survival was calculated using the formula: % Survival=live cell number [test]/live cell number [control]×100
(§5) The IC50 values were calculated by non-linear regression analysis.

PANC-1 (pancreas) = test: In vitro cell proliferation assay (SRB), PANC-1; type: cell-based; settings: Homo sapiens, SRB method, 96 hours, read-out: Inhibition of cell growth (IC50, μM) PANC-1
Procedure: as §1, §2, §3, §4, §5

Caki-1 (kidney) = test: In vitro cell proliferation assay (SRB), Caki-1; type: cell-based; settings: Homo sapiens, SRB method, 96 hours, read-out: Inhibition of cell growth (IC50, μM) Caki-1
Procedure: as §1, §2, §3, §4, §5

[1] = system: HCT15 human colon carcinoma xenografts; test: Ex vivo xenograft study of nude mice; type: in vivo; settings: 10 mg/kg/day intraperitoneal, three times per week; for % Inhibition of HCT-15 human colorectal cancer in mice at 29 days: day 10 to day 29, nude mice
Procedure: In order to observe the inhibition of growth of tumor in an animal model, an ex vivo xenograft study of nude mice was conducted utilizing Compound 13. Paclitaxel-resistant HCT15 cell suspension (1×10^6 cells in 0.2 ml of RPMI) was injected subcutaneously into the right flank of six-week-old female athymic mice (BALB/c nu/nu) on day 0. A sufficient number of mice were injected with HCT15 cell suspension so that tumors in a volume range as narrow as possible were selected for the trial on the day of treatment initiation. Animals with tumors in the proper size range were assigned to various treatment groups. Palcitaxel was used as a positive control. Compound 13 and paclitaxel were dissolved in 5 Cremophor and 5% ethanol in PBS and solvent alone served as vehicle control. All study medications (vehicle control, paclitaxel: 10 mg/kg/day, Compound 13: 10 mg/kg/day) were given by intraperitoneal injections three times per week starting from day 10 and ending on day 29 after inoculation of HCT15 cells. To quantify tumor growth, three perpendicular diameters of the tumors were measured with calipers every 3-5 days, and the body weight of the mice was monitored for toxicity. The tumor volume was calculated using the formula: tumor volume (mm^3)=(width)×(length)×(height)×π/6.

[2] = system: paclitaxel-resistant HCT-15 colorectal cancer cells; test: In vitro antitumor effects against paclitaxel-resistant HCT-15 cells; type: cell-based, Human; settings: for IC50: Homo sapiens, paclitaxel-resistant HCT-15, Table 5, read-out: Inhibition of cell growth, IC50 (μM) HCT-15; for antitumor activity compared with paclitaxel: paclitaxel-resistant HCT-15 colorectal cancer cells
Procedure: as §1, §3, §4, §5
Compound 13 and 14 were tested in colon cancer cells and their antitumor activities were compared with paclitaxel (Taxol®).

SK-MEL-28 (melanoma) = test: In vitro cell proliferation assay (SRB), SK-MEL-28; type: cell-based; settings: Homo sapiens, SRB method, 96 hours, read-out: Inhibition of cell growth (IC50, μM) SK-MEL-28
Procedure: as §1, §2, §3, §4, §5

PC3 (prostate) = test: In vitro cell proliferation assay (SRB), PC3; type: cell-based; settings: Homo sapiens; SRB method, 96 hours; read-out: Inhibition of cell growth (IC50, μM) PC3
Procedure: as §1, §2, §3, §4, §5

MDA-MB-231 (breast) = test: In vitro cell proliferation assay (SRB), MDA-MB-231; type: cell-based; settings: Homo sapiens, SRB method, 96 hours, read-out: Inhibition of cell growth (IC50, μM) MDA-MB-231
Procedure: as §1, §2, §3, §4, §5

HCT116 (colon) = test: In vitro cell proliferation assay (SRB), HCT116; type: cell-based; settings: Homo sapiens, HCT-116
Procedure: as §1, §2, §3, §4, §5

human cancer cell lines = test: Growth inhibition against the panel of human tumor cell lines (SRB), overall statements; type: cell-based; settings: Table 3 cell lines
Procedure: as §1, §2, §3, §4, §5
Using QSAR and medicinal chemistry techniques, a large number of compounds, including the compounds shown in Table 1-2 above, were synthesized. The synthesized compounds were screened against at least four cancer cell lines, PANC-1, MDA-MB-231, HCT116 and Caki-1, at approximately 1 μM concentration. Compounds showing activity in at least one of these cell lines were selected for further screening. From these compounds, thirty compounds were selected for further evaluation as broad-spectrum anti-proliferative agents as shown in the following Table 3.

OVCAR-3 (ovary) = test: In vitro cell proliferation assay (SRB), OVCAR3; type: cell-based; settings: Homo sapiens, SRB method, 96 hours, read-out: Inhibition of cell growth (IC50, μM) OVCAR3
Procedure: as §1, §2, §3, §4, §5

HCT116 cells = test: In vitro cell cycle analysis (PI staining); type: cell-based, Human; settings: HCT116, 0.3 uM, 12 hours; for % Cells in S: DMSO control 20.5; for % Cells in G1: DMSO control 39.4; for % Cells in G2/M: DMSO control 40.1
Procedure: as §1
This assay was used to determine the ability of 5, 6, or 7-substituted-3-(hetero)arylisoquinolinamine compounds to arrest cells at a specific phase during cell cycle. The day before drug treatment, HCT116 cells were plated at 50-70% saturation in a 10 cm dish in RPMI1640 medium with 10% FBS and then incubated overnight in a humidified 37° C. incubator with 5% CO2. The following day RPMI1640 medium (with 10% FBS) carrying the appropriate concentration of test compound solubilized in DMSO was added to the dishes. No compound control treatment was also included (0.25% DMSO). The cells were then incubated for 12 hours and were harvested by centrifugation at 7,000 rpm for 5 minutes. Cell pellets were resuspended in 0.2 ml of PBS containing 0.1% glucose and 2% FBS. Subsequently, 5 ml ice-cold 70% ethanol was added dropwise with shaking and the treated cells were stored at −20° C. at least 30 minutes. Cells were centrifuged at 2,000 rpm for 5 minutes and washed once with 1 ml PBS with 0.1% glucose and 2% FBS. After removal of the supernatant, cells were resuspended in 0.5 ml of 70 μM propium iodide (PI) solution containing 0.1% Triton X-100, 40 mM sodium citrate, pH 7.4. RNase was added at 50 μg/ml final concentration and cells were incubated at 37° C. for 30 minutes. PI stained cells were analyzed by Guava PCA-AFP instrument using its cell cycle software program (Guava Technologies, Hayward, Calif.) and expressed as percentage of cells in G1, S and G2/M phases of the cell cycle.

[3] = SRB method, 96 hours, Table 3, read-out: Inhibition of cell growth (IC50, μM) HCT116
[4] = Table 5, read-out: Inhibition of cell growth, IC50 (μM) HCT116

| IC50 (SNB-19 (glioblastoma)) [µM] | IC50 (PANC-1 (pancreas)) [µM] | IC50 (SK-MEL-28 (melanoma)) [µM] | IC50 (PC3 (prostate)) [µM] | IC50 (MDA-MB-231 (breast)) [µM] | IC50 (HCT116 (colon); [3]) [µM] | IC50 (OVCAR-3 (ovary)) [µM] | Structure (SMILES) | IC50 (Caki-1 (kidney)) [µM] | % Inhibition of HCT-15 human colorectal cancer in mice at 29 days [1] [%] | IC50 [2] [µM] | antitumor activity compared with paclitaxel [2] | IC50 (HCT116 (colon); [4]) [µM] | activity in growth inhibition of human cancer cell compared to Compound 23 (human cancer cell lines) | times more active than compound 23 in tested cell lines (human cancer cell lines) | % Cells in S (HCT116 cells) [%] | % Cells in G1 (HCT116 cells) [%] | % Cells in G2/M (HCT116 cells) [%] | other results |
| --- | --- | --- | --- | --- | --- | --- | --- | --- | --- | --- | --- | --- | --- | --- | --- | --- | --- | --- |
| 0.028 | 0.018 | 0.032 | 0.024 | 0.021 | 0.023 | 0.016 | Cc1cccc(-c2cc3ccc(N(C)C)cc3c(N)n2)c1.Cl [Compound 14, N^7,N^7-Dimethyl-3-m-tolylisoquinoline-1,7-diamine hydrochloride] | 0.023 | – | 0.021 | higher antitumor activities than that of paclitaxel | 0.023 | equal or better activity | five to thirteen times more active | 7.6 | 10.3 | 82.1 | – |
| 0.26 | 0.24 | 0.35 | 0.24 | 0.15 | 0.19 | 0.15 | Cc1ccc2c(N)nc(-c3ccccc3C)cc2c1.Cl [Compound 23, 6-Methyl-3-o-tolylisoquinolin-1-amine hydrochloride salt] | 0.12 | – | – | – | – | – | – | – | – | – | melting point: 269.1 to 270.2 °C |
| 0.12 | 0.079 | 0.12 | 0.12 | 0.051 | 0.074 | 0.075 | Cc1ccc2cc(-c3c(C)cccc3C)nc(N)c2c1 [Compound 43, 7-Methyl-3-(2,6-dimethylphenyl)isoquinolin-1-amine] | 0.048 | – | – | – | – | equal or better activity | – | 10.8 | 15.3 | 73.9 | – |

More lines, now with the values behind:

| Structure (SMILES) | IC50 (SNB-19 (glioblastoma)) [µM] | IC50 (PANC-1 (pancreas)) [µM] | IC50 (SK-MEL-28 (melanoma)) [µM] | IC50 (PC3 (prostate)) [µM] | IC50 (MDA-MB-231 (breast)) [µM] | IC50 (HCT116 (colon); [3]) [µM] | IC50 (OVCAR-3 (ovary)) [µM] | IC50 (Caki-1 (kidney)) [µM] | % Inhibition of HCT-15 human colorectal cancer in mice at 29 days [1] [%] | IC50 [2] [µM] | antitumor activity compared with paclitaxel [2] | IC50 (HCT116 (colon); [4]) [µM] | activity in growth inhibition of human cancer cell compared to Compound 23 (human cancer cell lines) | times more active than compound 23 in tested cell lines (human cancer cell lines) | % Cells in S (HCT116 cells) [%] | % Cells in G1 (HCT116 cells) [%] | % Cells in G2/M (HCT116 cells) [%] | other results |
| --- | --- | --- | --- | --- | --- | --- | --- | --- | --- | --- | --- | --- | --- | --- | --- | --- | --- | --- |
| COc1cccc(-c2cc3ccc(N(C)C)cc3c(N)n2)c1.Cl [Compound 13, 3-(3-methoxyphenyl)-N^7,N^7-dimethylisoquinoline-1,7-diamine hydrochloride] | 0.032 | 0.019 | 0.032 | 0.019 | 0.021 | 0.017 | 0.014 | 0.022 | 69.2 | 0.015 | higher antitumor activities than that of paclitaxel | 0.017 | equal or better activity | five to thirteen times more active | – | – | – | Tolerability of treatment ([1]; nude mice): well tolerated without deaths; body weight fluctuations ([1]; nude mice): no more than 1 g |
| CC(=O)O[C@H]1C(=O)[C@@]2(C)[C@H]([C@H](OC(=O)c3ccccc3)[C@]3(O)C[C@H](OC(=O)[C@H](O)[C@@H](NC(=O)c4ccccc4)c4ccccc4)C(C)=C1C3(C)C)[C@]1(OC(C)=O)CO[C@@H]1C[C@@H]2O [Paclitaxel, paclitaxel, reference compound] | – | – | – | – | – | – | – | – | 48.8 | 0.14 | – | 0.002 | – | – | – | – | – | loss of activity in HCT-15 cells when IC50 values compared in both colon cancer cells ([2]; HCT-15 versus HCT116): 70 fold |
